Consider 35 compounds from patent publication US20110263693A1, “CELASTROL, GEDUNIN, AND DERIVATIVES THEREOF AS HSP90 INHIBITORS” (DANA-FARBER CANCER INSTITUTE, INC., priority 2006, published 2011).

In one test the test system is gedunin signature. Nature of the test: Connectivity Map query with the gedunin signature. It counts as cell-based, human. Details: key to gedunin score (connectivity score): connectivity score, based on Kolmogorov-Smirnov statistic. The settings on record: for gedunin score (connectivity score): enrichment of the gedunin signature (20 μM gedunin at 6 hours, LNCaP) in the compound's Connectivity Map profiles, 6 hr treatment; for gedunin rank: rank by gedunin score among 164 Connectivity Map compounds. From the text: (§1) Indeed, a major challenge in cell-based chemical biology and chemical genomics is the identification of compounds' targets (Gardner et al., 2003). We hypothesized that gene expression signatures could be used to identify compound action based on the similarity of such compound-induced signatures to signatures of existing drugs of known mechanism. We therefore employed a collection of gene expression profiles of drug-treated cell lines that was developed in our lab, termed the Connectivity Map (Lamb et al., 2006). This database comprises 453 genome-wide Affymetrix expression profiles derived from the treatment of human cell lines with 164 small molecules, primarily FDA-approved drugs. A 6 hr treatment time was chosen in an attempt to capture the primary, and potentially mechanistic, effects of the compounds rather than the downstream phenotypic consequences.
(§2) In order to use the Connectivity Map to gain insight into celastrol and gedunin function, we first defined a gene expression signature of celastrol and gedunin activity. The expression signatures of celastrol and gedunin were derived by expression profiling of RNA from LNCaP cells treated with celastrol (1.25 μM), gedunin (20 μM), and vehicle (DMSO) for 6 hr; signatures were defined using comparative marker selection to identify transcripts that distinguished between the compound- and vehicle-treated profiles by the signal-to-noise (SNR) metric. The enrichment of these signatures in the gene expression profiles of the Connectivity Map database was then assessed using a gene enrichment metric, the connectivity score, based on the Kolmogorov-Smirnov statistic (Lamb et al., 2003).
(§3) The celastrol and gedunin signatures were developed from RMA-processed microarray data from LNCaP cells treated with 1.25 μM celastrol or 20 μM gedunin for 6 hours. Comparative marker selection was used to identify markers that distinguished celastrol- and/or gedunin-treated samples from vehicle-treated samples by the median SNR (Golub et al., 1999). The top 50 markers that increased and decreased relative to vehicle-treated controls were used as the signatures.
(§4) The current version of the Connectivity Map data set (build01) contains genome-wide expression data for 453 treatment and vehicle control pairs, representing 164 distinct small molecules. Cell treatments and Affymetrix profiling were predominantly carried out in MCF7 cells with 6 hr treatments as detailed (Table 4) (Lamb et al., 2006). Enrichment of the induced and repressed genes of a signature within each Connectivity Map treatment profile was estimated with a metric based on the Kolmogorov-Smirnov statistic as described (Lamb et al., 2003, Lamb et al., 2006). Connectivity Map data are available at www.broad.mit.edu/cmap/ and GEO (accession number GSE5258).
(§5) For the celastrol and gedunin signatures, RMA-processed data was filtered and thresholded (min fold change=2, min absolute change=50, floor=10, ceiling=16000). Comparative marker selection (GenePattern) was used to identify markers that distinguished celastrol- and/or gedunin-treated samples from vehicle-treated samples by the median SNR. The top fifty markers that increased and decreased relative to vehicle treated controls were used as the celastrol, gedunin, or joint celastrol/gedunin signatures.
(§6) The current version of The Connectivity Map dataset (build01) contains genome-wide expression data for 453 treatment and vehicle control pairs, representing 164 distinct small molecules. Cell treatments were predominantly carried out in the MCF7 cell line for 6 h as detailed in Table 4. Affymetrix profiling was then carried out as described (Lamb et al., 2006).

The next test concerns celastrol signature. Nature of the test: Connectivity Map query with the celastrol signature. It is filed as cell-based, human. Details: key to celastrol score (connectivity score): connectivity score, based on Kolmogorov-Smirnov statistic. The settings on record: for celastrol score (connectivity score): enrichment of the celastrol signature (1.25 μM celastrol at 6 h, LNCaP) in the compound's Connectivity Map profiles, 6 hr treatment; for celastrol rank: rank by celastrol score among 164 Connectivity Map compounds.
Description: as §1, §2, §3, §4, §5, §6

Turning to `O=C(O)c1ccccc1Nc1ccccc1` [N-phenylanthranilic acid], in the test on gedunin signature, the “gedunin score (connectivity score)” value was −0.472. Besides, the “celastrol score (connectivity score)” value in the test with celastrol signature was found to be 0.
For `C[C@@H]1C[C@H]2[C@@H]3CCC4=CC(=O)C=C[C@]4(C)[C@@]3(F)[C@@H](O)C[C@]2(C)[C@@]1(O)C(=O)CO` [dexamethasone, reference compound], in that order: 0 and 0.
On to `CCCc1c(OCCCCc2nnn[nH]2)ccc(C(C)=O)c1O` [tomelukast], for which the “gedunin score (connectivity score)” value in the test with gedunin signature is recorded as 0. Besides, in the test on celastrol signature, the “celastrol score (connectivity score)” value stood at 0.388.
As for `CC(C)c1ccc2c(c1)c(SC(C)(C)C)c(CC(C)(C)C(=O)O)n2Cc1ccc(Cl)cc1` [MK-886], in the test with gedunin signature, the “gedunin score (connectivity score)” value was −0.336 and the gedunin rank was found to be 155. Further, in the test with celastrol signature, the “celastrol score (connectivity score)” value came to 0 and the celastrol rank worked out at 94.
As to `Clc1ccc(C(c2ccc(Cl)cc2)n2cc[n+](CC(OCc3ccc(Cl)cc3Cl)c3ccc(Cl)cc3Cl)c2)cc1` (centres unmarked) [calmidazolium], in the test with gedunin signature, the “gedunin score (connectivity score)” value is given as 0.619. The “celastrol score (connectivity score)” value in the test with celastrol signature is 0.334.
Consider butirosin, for which, in the test with gedunin signature, the “gedunin score (connectivity score)” value is −0.55 and the gedunin rank was 162. For the same compound, in the test with celastrol signature, the “celastrol score (connectivity score)” value stood at 0 and the celastrol rank was found to be 132.
For `Nc1ccc(O)c(C(=O)O)c1` [mesalazine], the “gedunin score (connectivity score)” value with gedunin signature worked out at 0. The “celastrol score (connectivity score)” value in the test with celastrol signature is listed as 0.
In the case of `CCCCC/C=C/C=C1/C(=O)C=C[C@@H]1C/C=C\CCCC(=O)O` [15-delta prostaglandin J2], in the test on gedunin signature, the “gedunin score (connectivity score)” value is listed as 0.565 and the gedunin rank stood at 9. In the test on celastrol signature, the “celastrol score (connectivity score)” value worked out at 0.76 and the celastrol rank amounted to 7.
As for `O=c1c(O)c(-c2ccc(O)c(O)c2)oc2cc(O)cc(O)c12` [quercetin], the “gedunin score (connectivity score)” value in the test on gedunin signature is listed as −0.431. In the test on celastrol signature, the “celastrol score (connectivity score)” value is recorded as −0.111.
Taken in the same sequence, the figures for `Cc1cccc(Nc2cc(Cl)nc(SCC(=O)O)n2)c1C` [pirinixic acid] were 0.055 and 0.226.
`S=c1nc[nH]c2nc[nH]c12` [mercaptopurine]: the “gedunin score (connectivity score)” value with gedunin signature was 0.21. Moreover, the “celastrol score (connectivity score)” value in the test with celastrol signature is recorded as −0.121.
With `Cc1ccc(N(CC2=NCCN2)c2cccc(O)c2)cc1` [phentolamine], the “gedunin score (connectivity score)” value in the test on gedunin signature is on record as 0. Also, the “celastrol score (connectivity score)” value in the test on celastrol signature is 0.
In the case of `O=c1c(-c2ccc(O)cc2)coc2cc(O)cc(O)c12` [genistein], the “gedunin score (connectivity score)” value with gedunin signature came out at 0.097. In the test with celastrol signature, the “celastrol score (connectivity score)” value was 0.153.
For `CCCCC/C=C\C/C=C\C/C=C\C/C=C\CCCC(=O)O` [arachidonic acid], in the test on gedunin signature, the “gedunin score (connectivity score)” value is −0.222. For the same compound, the “celastrol score (connectivity score)” value in the test on celastrol signature stood at 0.
Regarding `CN(CCOc1ccc(CC2SC(=O)NC2=O)cc1)c1ccccn1` (centres unmarked) [rosiglitazone], the “gedunin score (connectivity score)” value with gedunin signature was 0. In addition, the “celastrol score (connectivity score)” value in the test on celastrol signature is recorded as 0.098.
For the compound `CSc1ccc2c(c1)N(CCC1CCCCN1C)c1ccccc1S2` (centres unmarked) [thioridazine], the “gedunin score (connectivity score)” value in the test on gedunin signature turned out to be 0.522. Moreover, the “celastrol score (connectivity score)” value with celastrol signature came out at 0.308.
For `O=C(c1ccc(OCCN2CCCCC2)cc1)c1c(-c2ccc(O)cc2)sc2cc(O)ccc12` [raloxifene], in that order: 0.292 and 0.
For `CCOC(=O)C(C)(C)Oc1ccc(Cl)cc1` [clofibrate], in that order: 0 and 0.
With `N=C(N)NC(N)=Nc1ccccc1` [phenyl biguanide], the “gedunin score (connectivity score)” value in the test with gedunin signature is recorded as 0. For the same compound, the “celastrol score (connectivity score)” value with celastrol signature was determined as 0.
Turning to `Cc1c(C)c2c(c(C)c1O)CCC(C)(COc1ccc(CC3SC(=O)NC3=O)cc1)O2` (centres unmarked) [troglitazone], the “gedunin score (connectivity score)” value in the test with gedunin signature was found to be 0.167. Also, the “celastrol score (connectivity score)” value in the test on celastrol signature is 0.42.
`CC(Cc1ccc(O)c(O)c1)C(C)Cc1ccc(O)c(O)c1` (centres unmarked) [nordihydroguaiaretic acid]: the “gedunin score (connectivity score)” value in the test on gedunin signature stood at 0.286. Further, in the test on celastrol signature, the “celastrol score (connectivity score)” value stood at 0.264.
For `CCOC(=O)C1=C(C)NC(C)=C(C(=O)OC)C1c1cccc(Cl)c1Cl` (centres unmarked) [felodipine], the “gedunin score (connectivity score)” value with gedunin signature is 0.171. Further, in the test with celastrol signature, the “celastrol score (connectivity score)” value worked out at 0.171.
In the case of `C[C@]12CCC(=O)C=C1CC[C@H]1[C@@H]3CC[C@](O)(C(=O)CO)[C@@]3(C)C[C@H](O)[C@@]12F` [fludrocortisone], the “gedunin score (connectivity score)” value in the test on gedunin signature is 0. The “celastrol score (connectivity score)” value with celastrol signature is 0.
For the compound `N=C(N)c1ccc(OCCCCCOc2ccc(C(=N)N)cc2)cc1` [pentamidine], the “gedunin score (connectivity score)” value in the test on gedunin signature is reported as 0.456. Besides, the “celastrol score (connectivity score)” value in the test on celastrol signature is 0.
In the case of `CO[C@H]1C[C@@H]2CC[C@@H](C)[C@@](O)(O2)C(=O)C(=O)N2CCCC[C@H]2C(=O)O[C@H]([C@H](C)C[C@@H]2CC[C@@H](O)[C@H](OC)C2)CC(=O)[C@H](C)/C=C(\C)[C@@H](O)[C@@H](OC)C(=O)[C@H](C)C[C@H](C)/C=C/C=C/C=C/1C` [sirolimus], in the test on gedunin signature, the “gedunin score (connectivity score)” value is 0. For the same compound, in the test on celastrol signature, the “celastrol score (connectivity score)” value is −0.283.
`CCCCCCCCCCCCCCCC(=O)N[C@H](CN1CCOCC1)[C@H](O)c1ccccc1` (racemic) [DL-PPMP]: in the test with gedunin signature, the “gedunin score (connectivity score)” value came to 0 and the gedunin rank is on record as 110. Also, in the test with celastrol signature, the “celastrol score (connectivity score)” value is reported as 0 and the celastrol rank is reported as 138.
Turning to `CC1=C(/C=C/C(C)=C/C=C/C(C)=C/C(=O)O)C(C)(C)CCC1` [tretinoin], the “gedunin score (connectivity score)” value in the test on gedunin signature was −0.206. For the same compound, the “celastrol score (connectivity score)” value with celastrol signature is −0.084.
Regarding `Cc1nc2c(O)cccc2c(=O)[nH]1` [NU-1025], in the test on gedunin signature, the “gedunin score (connectivity score)” value is recorded as −0.222 and the gedunin rank is recorded as 152. Further, in the test on celastrol signature, the “celastrol score (connectivity score)” value is given as −0.362 and the celastrol rank was determined as 156.
On to `O=C(O)CCc1nc(-c2ccccc2)c(-c2ccccc2)o1` [oxaprozin], for which the “gedunin score (connectivity score)” value in the test on gedunin signature was 0.562. In the test on celastrol signature, the “celastrol score (connectivity score)” value came to 0.445.
As for `CC(C)(Sc1cc(C(C)(C)C)c(O)c(C(C)(C)C)c1)Sc1cc(C(C)(C)C)c(O)c(C(C)(C)C)c1` [probucol], the “gedunin score (connectivity score)” value in the test on gedunin signature is given as 0. In the test on celastrol signature, the “celastrol score (connectivity score)” value is on record as 0.332.
Take `NC(=O)N1c2ccccc2C=Cc2ccccc21` [carbamazepine]: in the test on gedunin signature, the “gedunin score (connectivity score)” value was found to be 0.407. Also, the “celastrol score (connectivity score)” value with celastrol signature came to 0.339.
Take `COC1=C2C[C@@H](C)C[C@H](OC)[C@H](O)[C@@H](C)/C=C(\C)[C@H](OC(N)=O)[C@@H](OC)/C=C\C=C(/C)C(=O)NC(=CC1=O)C2=O` [geldanamycin, reference compound]: the “gedunin score (connectivity score)” value in the test on gedunin signature turned out to be 0.74. In the test with celastrol signature, the “celastrol score (connectivity score)” value came out at 0.676.
Taken in the same sequence, the figures for `O=C1CCc2c(ccc3ccccc23)O1` [splitomicin] were 0 and −0.525.
Regarding `CC[C@@]1([C@@H]2O[C@@H]([C@H]3O[C@@](O)(CO)[C@H](C)C[C@@H]3C)C[C@@H]2C)CC[C@H]([C@]2(C)CC[C@]3(C[C@H](O)[C@@H](C)[C@@H]([C@@H](C)[C@@H](OC)[C@H](C)C(=O)O)O3)O2)O1` [monensin], in the test on gedunin signature, the “gedunin score (connectivity score)” value was determined as 0. In the test with celastrol signature, the “celastrol score (connectivity score)” value was found to be 0.454.
For `CCCC(=O)Nc1ncnc2c1ncn2[C@@H]1O[C@@H]2COP(=O)(O)O[C@H]2[C@H]1OC(=O)CCC` [bucladesine], in that order: −0.144 and 0.
